The test system of data set [1] is human gastric cancer cell line NCI-N87 [ヒト胃癌細胞株NCI-N87]. Kind of data set: MTT cell proliferation assay, NCI-N87. In general terms: Tetrazolium dyes change colour on reduction, which living cells bring about.
Data set [2] deals with human basal cell carcinoma cell line TE 354.T [ヒト基底細胞癌細胞株TE 354.T]. The experiment in a line: MTT cell proliferation assay, TE 354.T. It is filed as cell-based. The note with it: for inhibition at 50 µg/mL: Homo sapiens, Example 8, 50 μg/ml, 24 h.
For data set [3], the system named is human epidermoid carcinoma cell line A-431 [ヒト類表皮癌細胞株A-431]. Kind of data set: MTT cell proliferation assay, A-431. It is filed as cell-based. Particulars: for inhibition at 50 µg/mL: Homo sapiens, A-431, Example 7, 50 μg/ml, 24 h.
Data set [4] deals with human melanoma cell line A-2058 [ヒト黒色腫細胞株A-2058]. The experiment in a line: MTT cell proliferation assay, A-2058. It counts as cell-based.
Data set [5] has as its system human colon adenocarcinoma cell line DLD-1 [ヒト結腸腺癌細胞株DLD-1]. Kind of data set: MTT cell proliferation assay, DLD-1. It counts as cell-based.
Data set [6] concerns human esophageal cancer cell line KYSE-30 [ヒト食道癌細胞株KYSE-30]. The experiment in a line: MTT cell proliferation assay, KYSE-30. It counts as cell-based. The note with it: for inhibition at 58.5 µg/mL: low but significant.
Where [7] appears, read: Homo sapiens, NCI-N87, read-out: antiproliferative activity.

Read-outs that look alike come from different tables or passages of the source.

As to `O=c1[nH]cc(F)c(=O)[nH]1` [5-フルオロウラシル], the “activity ranking of 5-FU concentrations (in words)” value in data set [1] (Example 11, 5-FU at 6.5 μg/ml (of 6.5, 19.5, 58.5 μg/ml)) was “最も高い活性”; in data set [1] (Example 12, 5-FU at 6.5 μg/ml (of 6.5, 19.5, 58.5 μg/ml)), “最も高い活性”. Further, the “antiproliferative activity (in words)” value in data set [1] (Example 11, 5-FU at 6.5, 19.5 and 58.5 μg/ml) is listed as “低い且つ有意ではない活性”; in data set [1] (Example 12, 5-FU at 6.5, 19.5 and 58.5 μg/ml) it was “低い且つ有意ではない活性”; in data set [2] (Example 8, 5-FU at 0.195, 0.65 and 1.95 μg/ml), “低い且つ有意ではない活性”; in data set [3] (Example 7, 5-FU at 0.195, 0.65 and 1.95 μg/ml) it was “低い且つ有意ではない活性”; in data set [4] (Example 6, 5-FU at 0.195, 0.65 and 1.95 μg/ml), “低い且つ有意ではない活性”; in data set [5] (Example 9, 5-FU at 0.65 and 1.95 μg/ml), “低い且つ有意ではない活性”. Besides, the “antiproliferative activity (in words)” value in data set [5] (Example 10, 5-FU at 6.5, 19.5 and 58.5 μg/ml) is on record as “低い且つ有意ではない活性”; in data set [6] (Example 13, 5-FU at 6.5 and 19.5 μg/ml), “有意ではない活性”; in data set [6] (Example 14, 5-FU at 6.5 and 19.5 μg/ml), “有意ではない活性”. For the same compound, the inhibition at 58.5 µg/mL in data set [6] (Homo sapiens, KYSE-30, Example 13, 5-FU at 58.5 μg/ml, read-out: antiproliferative activity) came to 17%; in data set [6] (Homo sapiens, KYSE-30, Example 14, 5-FU at 58.5 μg/ml, read-out: inhibition of proliferation), 16.8%.
Regarding `CCCCCCCCCCCCC(O)CCCCC(O)CC(=O)OCC(O)CO` (stereo not drawn) [GLY-0Ac-1, 1-(3,8-ジヒドロキシエイコサノイル)グリセロール], the inhibition at 50 µg/mL in data set [2] was 38%; in data set [3], 81.5%.
Turning to `CCCCCCCCCCCCCC(O)CCCCC(O)CC(=O)OCC(O)CO` (stereo not drawn) [GLY-0Ac-2, 1-(3,8-ジヒドロキシヘンエイコサノイル)グリセロール], in data set [4] (Example 6, 50 μg/ml, highly purified compounds), the “potency ranking (in words)” value is “最も強力”.
For `CCCCCCCCCCCCC(O)CCCCC(O)CC(=O)OCC(O)COC(C)=O` (stereo not drawn) [GLY-1Ac-1, 1-(3,8-ジヒドロキシエイコサノイル)3-アセトキシグリセロール], the inhibition at 10 µg/mL in data set [1] (setting [7]) stood at 39%; in data set [6] (Homo sapiens, KYSE-30, Example 13, 10 μg/ml, not statistically significant, read-out: antiproliferative activity), 9%. The inhibition at 25 µg/mL in data set [1] (setting [7]) is 86%; in data set [5] (Homo sapiens, DLD-1, Example 9, second assay (retest), 25 μg/ml, read-out: antiproliferative activity), 13%; in data set [6] (Homo sapiens, KYSE-30, Example 13, 25 μg/ml, read-out: antiproliferative activity), 50%. The inhibition at 50 µg/mL in data set [2] amounted to 27.3%; in data set [3], 80.6%; in data set [5] (Homo sapiens, DLD-1, Example 9, second assay (retest), 50 μg/ml, read-out: antiproliferative activity), 94%. Further, the “potency ranking (in words)” value in data set [6] (Example 13, 50 μg/ml) is listed as “最も強力”.
As for `CCCCCCCCCCCCCC(O)CCCCC(O)CC(=O)OCC(O)COC(C)=O` (stereo not drawn) [GLY-1Ac-2, 1-(3,8-ジヒドロキシヘンエイコサノイル)3-アセトキシグリセロール], in data set [5] (Example 9, first assay, 50 μg/ml), the “potency ranking (in words)” value is listed as “最も強力”.
As to `CCCCCCCCCCCCCCCC(=O)OCC(O)CO` (stereo not drawn) [MGP, モノパルミチン酸グリセロール], the inhibition at 50 µg/mL in data set [6] (Homo sapiens, KYSE-30, Example 13, 50 μg/ml, read-out: inhibition of proliferation / antiproliferative activity) amounted to 75%.
